Series [1] concerns the target von Hippel-Lindau disease tumor suppressor/Histone-lysine N-methyltransferase EZH2 (Homo sapiens, UniProt Q15910+P40337, Y641N). As to the kind of experiment: PROTAC activity against VHL/EZH2 Y641N mutant in human DB cells assessed as degradation of EZH2 protein expression incubated for 24 hrs by Western blot analysis. The class given is cell-based. For orientation: A western blot detects proteins with antibodies after separation by electrophoresis.

The target in series [2] is von Hippel-Lindau disease tumor suppressor/Histone-lysine N-methyltransferase EZH2 (Homo sapiens, UniProt Q15910+P40337). Description: PROTAC activity against VHL/wild type EZH2 in human DB cells assessed as degradation of EZH2 protein expression incubated for 24 hrs by Western blot analysis. The class given is cell-based.
Sequence of von Hippel-Lindau disease tumor suppressor/Histone-lysine N-methyltransferase EZH2 (Homo sapiens, UniProt Q15910+P40337) (Q15910 whole entry): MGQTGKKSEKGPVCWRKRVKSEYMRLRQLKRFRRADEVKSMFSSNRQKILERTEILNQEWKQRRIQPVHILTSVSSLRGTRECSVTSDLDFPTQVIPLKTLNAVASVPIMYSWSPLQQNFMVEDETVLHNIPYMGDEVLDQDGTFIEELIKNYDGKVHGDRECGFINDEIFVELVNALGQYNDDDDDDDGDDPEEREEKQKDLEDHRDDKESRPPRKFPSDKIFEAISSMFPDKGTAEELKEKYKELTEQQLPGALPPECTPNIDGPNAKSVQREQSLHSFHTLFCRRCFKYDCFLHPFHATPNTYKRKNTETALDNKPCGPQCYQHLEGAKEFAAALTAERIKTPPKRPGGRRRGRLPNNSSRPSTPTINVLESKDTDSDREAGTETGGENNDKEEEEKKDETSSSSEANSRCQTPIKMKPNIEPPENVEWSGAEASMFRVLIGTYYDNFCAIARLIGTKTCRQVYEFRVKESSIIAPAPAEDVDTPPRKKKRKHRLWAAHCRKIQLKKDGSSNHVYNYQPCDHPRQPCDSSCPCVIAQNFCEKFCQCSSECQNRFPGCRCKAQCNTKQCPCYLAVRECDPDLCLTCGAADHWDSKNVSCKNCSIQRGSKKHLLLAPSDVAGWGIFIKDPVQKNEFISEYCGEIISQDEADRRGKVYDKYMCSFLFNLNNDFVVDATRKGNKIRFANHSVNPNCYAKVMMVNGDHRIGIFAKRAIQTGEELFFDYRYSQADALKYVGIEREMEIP
Sequence of von Hippel-Lindau disease tumor suppressor/Histone-lysine N-methyltransferase EZH2 (Homo sapiens, UniProt Q15910+P40337) (P40337 whole entry): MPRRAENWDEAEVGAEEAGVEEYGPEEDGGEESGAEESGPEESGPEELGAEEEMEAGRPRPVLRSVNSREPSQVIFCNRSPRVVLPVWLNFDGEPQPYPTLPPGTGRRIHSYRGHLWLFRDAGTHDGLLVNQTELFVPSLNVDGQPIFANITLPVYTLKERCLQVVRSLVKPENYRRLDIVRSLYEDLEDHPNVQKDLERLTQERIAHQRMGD
For series [3], the target named is von Hippel-Lindau disease tumor suppressor/Polycomb protein EED (Homo sapiens, UniProt O75530+P40337). Description: PROTAC activity at VHL/EED in human DB cells assessed as degradation of EED protein expression incubated for 24 hrs by Western blotting analysis. Type of series: cell-based.
Sequence of von Hippel-Lindau disease tumor suppressor/Polycomb protein EED (O75530 whole entry): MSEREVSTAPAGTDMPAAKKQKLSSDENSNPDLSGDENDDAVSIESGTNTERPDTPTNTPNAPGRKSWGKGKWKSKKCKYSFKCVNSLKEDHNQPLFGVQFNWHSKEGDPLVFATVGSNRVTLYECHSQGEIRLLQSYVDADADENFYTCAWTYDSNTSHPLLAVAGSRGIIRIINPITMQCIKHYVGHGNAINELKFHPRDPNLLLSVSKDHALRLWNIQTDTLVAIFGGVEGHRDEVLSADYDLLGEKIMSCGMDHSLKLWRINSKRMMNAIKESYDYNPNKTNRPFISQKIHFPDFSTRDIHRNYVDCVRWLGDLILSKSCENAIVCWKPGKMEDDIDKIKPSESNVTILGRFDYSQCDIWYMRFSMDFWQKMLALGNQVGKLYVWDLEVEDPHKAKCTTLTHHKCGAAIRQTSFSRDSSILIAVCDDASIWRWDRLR
Sequence of von Hippel-Lindau disease tumor suppressor/Polycomb protein EED (P40337 whole entry): as the sequence (P40337 whole entry) above
Series [4] can be described thus: Oral bioavailability in C57BL/6 mouse at 30 mg/kg by LC-MS/MS analysis. The class given is ADME, organism-based. Particulars: in vivo.
Series [5] can be described thus: Tmax in C57BL/6 mouse at 30 mg/kg, po by LC-MS/MS analysis. The class given is ADME, organism-based. The note with it: in vivo.
Series [6] is described as follows: AUC (0 to t) in C57BL/6 mouse at 30 mg/kg, po by LC-MS/MS analysis. Type of series: ADME, organism-based. Particulars: in vivo.
The nature of series [7]: Cmax in C57BL/6 mouse at 30 mg/kg, po by LC-MS/MS analysis. Type of series: ADME, organism-based. Particulars: in vivo.
Series [8] is described as follows: Half life in C57BL/6 mouse at 30 mg/kg, po by LC-MS/MS analysis. Type of series: ADME, organism-based. Particulars: in vivo.
Series [9] concerns the target Protein cereblon/Leucine-rich repeat serine/threonine-protein kinase 2 (Homo sapiens, UniProt Q5S007+Q96SW2). Description: PROTAC activity at CRBN/LRRK2 in human MOLT-4 cells assessed as induction of LRRK2 degradation at 1 uM by Western blot analysis relative to control. The class given is cell-based.
Series [10] is described as follows: Oral bioavailability in mouse. The class given is ADME, organism-based. The note with it: in vivo.
Series [11] concerns the target von Hippel-Lindau disease tumor suppressor/Bromodomain-containing protein 9 (Homo sapiens, UniProt Q9H8M2+P40337). Description: PROTAC activity at VHL/BRD9 in human HeLa cells assessed as induction of protein degradation […]. The class given is cell-based.
The next series addresses Cytochrome P450 2C19 (Homo sapiens, UniProt P33261). Description: Inhibition of CYP2C19 (unknown origin). Type of series: ADME.
Series [12] in a line: Oral bioavailability in ICR mouse at 5 mg/kg by LC-MS/SM analysis. The note with it: in vivo. Type of series: ADME, organism-based.
The next series deals with Cytochrome P450 2D6 (Homo sapiens, UniProt P10635). Description: Inhibition of CYP2D6 (unknown origin). Type of series: ADME.
Series [13] in a line: Clearance in Sprague-Dawley rat at 0.5 mg/kg, iv. Type of series: ADME, organism-based. The note with it: in vivo.
A short description of series [14]: Clearance in mouse at 10 mg/kg, po measured upto 24 hrs by LC-MS/MS analysis. The class given is ADME, organism-based. Particulars: in vivo.
The nature of series [15]: Oral bioavailability in Sprague-Dawley rat at 5 mg/kg incubated for 24 hrs by LC-MS/MS analysis. The class given is ADME, organism-based. Particulars: in vivo.
For a further series, the target named is Cytochrome P450 3A4 (Homo sapiens, UniProt P08684). Description: Inhibition of CYP3A4 (unknown origin). The class given is ADME.
The target of series [16] is Voltage-gated inwardly rectifying potassium channel KCNH2 (Homo sapiens, UniProt Q12809). Description: Inhibition of hERG (unknown origin). The class given is toxicity. On the technique in general: Block of hERG is tested as a sign of cardiac risk.
Series [17] concerns the target Protein cereblon/Tyrosine-protein kinase BTK (Homo sapiens, UniProt Q06187+Q96SW2, C481S). Description: PROTAC activity at CRBN/BTK C481S mutant in human DLBCL cells assessed as degradation of BTK protein incubated for 4 hrs by HTRF assay. The class given is cell-based. Background: TR-FRET usually uses a lanthanide donor and a delayed reading to cut background.
A short description of series [18]: Oral availability in ICR mouse at 30 mg/kg by HPLC-MS/MS analysis. The note with it: in vivo. The class given is ADME, organism-based.
Series [19] can be described thus: AUC (0 to t) in ICR mouse at 30 mg/kg, po measured upto 24 hrs by HPLC-MS/MS analysis. The class given is ADME, organism-based. Particulars: in vivo.

Sequence of von Hippel-Lindau disease tumor suppressor/Bromodomain-containing protein 9 (Q9H8M2 whole entry): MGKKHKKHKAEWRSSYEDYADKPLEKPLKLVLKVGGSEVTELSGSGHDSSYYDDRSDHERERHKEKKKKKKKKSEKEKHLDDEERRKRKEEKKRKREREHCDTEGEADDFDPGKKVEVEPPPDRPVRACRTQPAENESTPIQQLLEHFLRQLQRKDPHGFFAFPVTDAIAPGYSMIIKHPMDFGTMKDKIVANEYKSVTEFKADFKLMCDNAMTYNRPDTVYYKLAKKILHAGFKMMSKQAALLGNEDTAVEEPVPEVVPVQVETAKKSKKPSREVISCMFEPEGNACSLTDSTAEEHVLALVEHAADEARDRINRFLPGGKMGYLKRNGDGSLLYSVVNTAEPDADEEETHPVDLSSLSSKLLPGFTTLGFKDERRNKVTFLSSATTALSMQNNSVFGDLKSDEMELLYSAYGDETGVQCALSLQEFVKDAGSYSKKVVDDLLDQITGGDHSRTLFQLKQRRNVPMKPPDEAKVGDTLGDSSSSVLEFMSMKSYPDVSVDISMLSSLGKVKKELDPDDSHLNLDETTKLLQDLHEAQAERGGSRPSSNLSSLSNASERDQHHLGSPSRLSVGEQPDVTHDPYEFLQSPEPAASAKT
Sequence of von Hippel-Lindau disease tumor suppressor/Bromodomain-containing protein 9 (P40337 whole entry): as the sequence (P40337 whole entry) above
Sequence of von Hippel-Lindau disease tumor suppressor/Histone-lysine N-methyltransferase EZH2 (Homo sapiens, UniProt Q15910+P40337, Y641N) (P40337 whole entry, stated change not applied): as the sequence (P40337 whole entry) above
Sequence of von Hippel-Lindau disease tumor suppressor/Histone-lysine N-methyltransferase EZH2 (Homo sapiens, UniProt Q15910+P40337, Y641N) (Q15910 whole entry Y641N, stated change not applied): as the sequence (Q15910 whole entry) above, with Y641N counted along it
Sequence of Protein cereblon/Tyrosine-protein kinase BTK (Q06187 2-659 C481S limits assumed, stated change not applied): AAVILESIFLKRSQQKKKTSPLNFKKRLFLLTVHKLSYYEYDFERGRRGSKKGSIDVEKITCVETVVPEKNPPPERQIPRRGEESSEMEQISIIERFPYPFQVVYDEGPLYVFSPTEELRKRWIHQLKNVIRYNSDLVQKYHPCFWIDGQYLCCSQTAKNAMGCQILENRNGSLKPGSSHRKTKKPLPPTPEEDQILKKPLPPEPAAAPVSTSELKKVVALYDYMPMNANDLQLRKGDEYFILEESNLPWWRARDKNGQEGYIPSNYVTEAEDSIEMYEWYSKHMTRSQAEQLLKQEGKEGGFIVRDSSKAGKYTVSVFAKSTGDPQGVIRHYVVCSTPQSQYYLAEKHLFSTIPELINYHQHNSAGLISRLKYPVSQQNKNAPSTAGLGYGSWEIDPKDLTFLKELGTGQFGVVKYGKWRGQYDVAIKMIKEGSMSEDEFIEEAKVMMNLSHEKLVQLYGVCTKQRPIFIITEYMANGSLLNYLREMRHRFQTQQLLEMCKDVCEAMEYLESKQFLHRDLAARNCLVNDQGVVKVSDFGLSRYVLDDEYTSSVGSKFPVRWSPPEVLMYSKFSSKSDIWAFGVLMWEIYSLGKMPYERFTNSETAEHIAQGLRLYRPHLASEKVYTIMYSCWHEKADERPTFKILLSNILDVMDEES
Sequence of Protein cereblon/Tyrosine-protein kinase BTK (Q96SW2 whole entry, stated change not applied): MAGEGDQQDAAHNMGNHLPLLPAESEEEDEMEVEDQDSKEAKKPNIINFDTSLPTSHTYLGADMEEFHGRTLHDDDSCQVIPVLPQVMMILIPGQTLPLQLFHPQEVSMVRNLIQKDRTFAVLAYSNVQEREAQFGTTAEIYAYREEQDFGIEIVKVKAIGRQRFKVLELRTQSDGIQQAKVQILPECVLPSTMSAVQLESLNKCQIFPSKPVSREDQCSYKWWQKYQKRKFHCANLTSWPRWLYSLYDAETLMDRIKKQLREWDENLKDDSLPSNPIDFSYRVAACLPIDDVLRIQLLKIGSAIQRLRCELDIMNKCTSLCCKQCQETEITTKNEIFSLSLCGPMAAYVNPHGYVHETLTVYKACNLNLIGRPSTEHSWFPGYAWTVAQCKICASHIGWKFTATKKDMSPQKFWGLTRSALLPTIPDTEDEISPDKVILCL
Sequence of Cytochrome P450 2C19 (P33261 whole entry): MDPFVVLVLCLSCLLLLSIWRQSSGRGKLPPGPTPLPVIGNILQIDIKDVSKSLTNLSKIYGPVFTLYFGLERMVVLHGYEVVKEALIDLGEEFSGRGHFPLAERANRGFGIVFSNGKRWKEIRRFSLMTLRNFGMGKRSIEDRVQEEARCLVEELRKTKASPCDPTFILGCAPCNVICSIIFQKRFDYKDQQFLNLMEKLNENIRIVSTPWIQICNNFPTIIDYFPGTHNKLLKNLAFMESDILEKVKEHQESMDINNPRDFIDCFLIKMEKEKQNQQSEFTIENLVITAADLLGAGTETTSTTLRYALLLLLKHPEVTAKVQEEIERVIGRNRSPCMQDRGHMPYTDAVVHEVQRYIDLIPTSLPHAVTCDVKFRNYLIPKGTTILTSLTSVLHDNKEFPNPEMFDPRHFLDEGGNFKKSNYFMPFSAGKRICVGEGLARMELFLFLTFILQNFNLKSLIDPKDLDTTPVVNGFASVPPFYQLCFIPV

Turning to `Cc1ncsc1-c1ccc(CNC(=O)[C@@H]2C[C@@H](O)CN2C(=O)[C@@H](NC(=O)[C@H]2C[C@@H](NC(=O)c3ccc(-c4cnc(NCc5ccco5)n5cnnc45)cc3)C2)C(C)(C)C)cc1`, the DC50 (as a rule, the midpoint of the concentration-degradation curve) is 275 nM in series [1], 275 nM in series [2] and 111 nM in [3].

On to `CNc1nc(Nc2ccc(C(=O)N3CCN(C[C@H]4CC[C@H](CSC(C)(C)[C@H](NC(=O)C5(F)CC5)C(=O)N5C[C@H](O)C[C@H]5C(=O)NCc5ccc(-c6scnc6C)cc5)CC4)CC3)cc2OC)ncc1Cl`, for which, in series [4], the bioavailability (in general, the share of a dose that reaches the circulation, judged against a reference dose that is usually intravenous) was 15%. The Tmax – broadly, the time at which the peak concentration occurs – in series [5] was 2 h. The AUC(0-t) (usually the area under the concentration-time curve up to a stated or last time point) in [6] amounted to 21300 ng·h/mL. Moreover, in [7], the peak concentration (Cmax) (in general, the peak of the concentration-time curve) stood at 3620 ng/mL. Further, in [8], the half-life (commonly how long it takes for the measured level to halve) is 1310 min.

`C[C@@H]1C=C2C=C[C@@H](C)[C@@H](CC[C@@H]3C[C@@H](O)CC(=O)O3)[C@@H]2[C@H](OC(=O)NCCOCCOCCNc2cccc3c2C(=O)N(C2CCC(=O)NC2=O)C3=O)C1` (stereo partly drawn): the Emax (commonly the size of the effect at its maximum, as opposed to the concentration needed) in [9] came to 44%.

For the compound `COc1cc(-c2cn(C)c(=O)c3[nH]ncc23)cc(OC)c1CN1CCN(C(=O)CN2CCC(c3ccc(NC4CCC(=O)NC4=O)cc3)CC2)CC1` (stereo not drawn), in series [10], the bioavailability is under 1%. Moreover, the 50% degradation concentration (DC50) in [11] turned out to be 5 nM.

Turning to `COc1cc(-c2cn(C)c(=O)c3cnccc23)cc(Cl)c1CN1CCC(C2CCN(C(=O)c3ccc(NC4CCC(=O)NC4=O)cc3C(F)(F)F)CC2)CC1` (stereo not drawn), the IC50 (commonly the concentration that inhibits the measured activity by half) on Cytochrome P450 2C19 was 1900 nM; against Cytochrome P450 2D6, over 30 µM; at Cytochrome P450 3A4, 5.6 µM; in series [16], 7.5 µM. In addition, the bioavailability was determined as 100% in [12] and 48% in series [15]. For the same compound, the clearance (in general, the rate of elimination divided by the concentration) in series [13] amounted to 74 mL/min/kg. Moreover, the apparent clearance CL/F (as a rule, the apparent clearance, not corrected for the fraction that reaches the circulation) in series [14] came to 30 mL/min/kg. In addition, the DC50 in [11] is 11 nM.

On to `CN1CCN([C@@H]2CCCN(c3cnc(C(N)=O)c(Nc4ccc(C5CCN(CC6CCN(c7ccc(C(=O)N[C@H]8CCC(=O)NC8=O)nc7)CC6)CC5)cc4)n3)C2)C1=O` [NX-5948], for which the DC50 in [17] was found to be 0.32 nM.

On to `Cc1ncsc1-c1ccc(CNC(=O)[C@@H]2C[C@@H](O)CN2C(=O)[C@@H](NC(=O)CCCCCCCCCCNC(=O)OC2C[C@@H](C)C=C3C=C[C@H](C)[C@H](CC[C@@H]4C[C@H](O)CC(=O)O4)[C@H]32)C(C)(C)C)cc1` (stereo partly drawn), for which the Tmax in series [5] stood at 8 h. In series [6], this compound showed an exposure AUC(0-t) of 5000 ng·h/mL. Also, in series [7], the Cmax came out at 470 ng/mL. Besides, the half-life in [8] is 306 min.

In the case of `Cc1ncsc1-c1ccc(CNC(=O)[C@@H]2C[C@@H](O)CN2C(=O)[C@@H](NC(=O)CCCNC(=O)c2ccc(-c3cnc(NCc4ccco4)n4cnnc34)cc2)C(C)(C)C)cc1`, the DC50 in series [1] turned out to be 670 nM.

Regarding `Cc1ncsc1-c1ccc([C@H](CC[C@H](C)CCN2CCC(c3ccc4c(c3)n(C3CCCC3)c3nc(=O)c5c(Br)cccc5n43)CC2)NC(=O)[C@@H]2C[C@@H](O)CN2C(=O)[C@@H](NC(=O)C2(F)CC2)C(C)(C)C)cc1`, the bioavailability in series [18] was determined as 22%. Besides, the AUC(0-t) at 24 h in series [19] turned out to be 50000 ng·h/mL.
